Laboratory results reported in patent US11957687B2 (REGENERON PHARMACEUTICALS, INC., priority 2019, dated 2024).

Molecular target: HSD17B13 (Homo sapiens (Human), UniProt Q7Z5P4)
Experiment: HSD17B13 enzymatic inhibition assay (150 nM or 50 nM HSD17B13)
Type: biochemical
Conditions: 50 nM HSD17B13; read-out: Inhibition of 50 nM of HSD17B13 IC50

Sequence of HSD17B13 (Q7Z5P4 other isoform, or with tags, fused parts or gaps): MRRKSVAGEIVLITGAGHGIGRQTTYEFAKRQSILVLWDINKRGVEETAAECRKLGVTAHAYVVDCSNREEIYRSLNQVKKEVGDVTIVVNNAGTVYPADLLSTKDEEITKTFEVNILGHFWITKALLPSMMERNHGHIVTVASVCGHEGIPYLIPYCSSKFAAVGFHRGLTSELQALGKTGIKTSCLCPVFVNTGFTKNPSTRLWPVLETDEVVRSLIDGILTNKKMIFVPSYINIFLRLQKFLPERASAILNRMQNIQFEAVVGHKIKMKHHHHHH

IC50 [nM]	Compound
10	Cc1ccc2c(c1)Sc1cc(C)ccc1C2NC(=O)c1cc(OC2CCOCC2)c(C(F)(F)F)[nH]c1=O [Compound 258, N-(3,6-dimethyl-9H-thioxanthen-9-yl)-2-oxo-5-((tetrahydro-2H-pyran-4-yl)oxy)-6-(trifluoromethyl)-1,2-dihydropyridine-3-carboxamide]
6870	O=C(NC1CCCc2c(O)cccc21)c1ccc(SCc2cccc(C(F)(F)F)c2)[nH]c1=O (centres unmarked) [Compound 261, N-(5-hydroxy-1,2,3,4-tetrahydronaphthalen-1-yl)-2-oxo-6-((3-(trifluoromethyl)benzyl)thio)-1,2-dihydropyridine-3-carboxamide]
8460	O=C(N[C@@H]1C[C@@H](CCO)Cc2ccccc21)c1ccc(C(F)(F)F)[nH]c1=O [Compound 263, N-((1R,3S)-3-(2-hydroxyethyl)-1,2,3,4-tetrahydronaphthalen-1-yl)-2-oxo-6-(trifluoromethyl)-1,2-dihydropyridine-3-carboxamide]
9780	O=C(NC1CC(CO)Cc2ccccc21)c1ccc(C(F)(F)F)[nH]c1=O (stereo not drawn) [Compound 264, N-(3-(hydroxymethyl)-1,2,3,4-tetrahydronaphthalen-l-yl)-2-oxo-6-(trifluoromethyl)-1,2-dihydropyridine-3-carboxamide]
100	Cc1ccc2c(c1)Sc1ccccc1C2NC(=O)c1ccc(C(F)F)[nH]c1=O (centres unmarked) [Compound 275, 6-(difluoromethyl)-N-(3-methyl-9H-thioxanthen-9-yl)-2-oxo-1,2-dihydropyridine-3-carboxamide]
2620	Cc1ccc2c(c1)C(NC(=O)c1ccc(C(F)F)[nH]c1=O)c1ccccc1O2 (centres unmarked) [Compound 276, 6-(difluoromethyl)-N-(2-methyl-9H-xanthen-9-yl)-2-oxo-1,2-dihydropyridine-3-carboxamide]
2710	O=C(NC1c2ccccc2Sc2ccccc21)c1ccc(C(F)F)[nH]c1=O [Compound 277, 6-(difluoromethyl)-2-oxo-N-(9H-thioxanthen-9-yl)-1,2-dihydropyridine-3-carboxamide]
2000	O=C(NC1c2ccccc2Oc2ccccc21)c1ccc(C(F)F)[nH]c1=O [Compound 278, 6-(difluoromethyl)-2-oxo-N-(9H-xanthen-9-yl)-1,2-dihydropyridine-3-carboxamide]
180	Cc1ccc2c(c1)Oc1ccccc1C2NC(=O)c1ccc(C(F)F)[nH]c1=O (centres unmarked) [Compound 279, 6-(difluoromethyl)-N-(3-methyl-9H-xanthen-9-yl)-2-oxo-1,2-dihydropyridine-3-carboxamide]
110	Cc1ccc2c(c1)Oc1cc(C)ccc1C2NC(=O)c1ccc(C(F)F)[nH]c1=O [Compound 280, 6-(difluoromethyl)-N-(3,6-dimethyl-9H-xanthen-9-yl)-2-oxo-1,2-dihydropyridine-3-carboxamide]
1880	Cc1ccc2c(c1)C(NC(=O)c1ccc(C(F)F)[nH]c1=O)c1ccccc1S2 (centres unmarked) [Compound 281, 6-(difluoromethyl)-N-(2-methyl-9H-thioxanthen-9-yl)-2-oxo-1,2-dihydropyridine-3-carboxamide]

The remaining lines, values behind:

Compound	IC50 [nM]
COc1cc(C)cc2c1CCC2NC(=O)c1ccc(C(F)(F)F)[nH]c1=O (centres unmarked) [Compound 256, N-(4-methoxy-6-methyl-2,3-dihydro-1H-inden-1-yl)-2-oxo-6-(trifluoromethyl)-1,2-dihydropyridine-3-carboxamide]	> 10000
COc1c(C)ccc2c1CCC2NC(=O)c1ccc(C(F)(F)F)[nH]c1=O (centres unmarked) [Compound 257, N-(4-methoxy-5-methyl-2,3-dihydro-1H-inden-1-yl)-2-oxo-6-(trifluoromethyl)-1,2-dihydropyridine-3-carboxamide]	7130
COc1ccc2c(c1)Oc1cc(OC)ccc1C2NC(=O)c1cc(OC2CCOCC2)c(C(F)(F)F)[nH]c1=O [Compound 259, N-(3,6-dimethoxy-9H-xanthen-9-yl)-2-oxo-5-((tetrahydro-2H-pyran-4-yl)oxy)-6-(trifluoromethyl)-1,2-dihydropyridine-3-carboxamide]	70
O=C(N[C@@H]1C[C@H](CCO)Cc2ccccc21)c1ccc(C(F)(F)F)[nH]c1=O [Compound 262, N-((1R,3R)-3-(2-hydroxyethyl)-1,2,3,4-tetrahydronaphthalen-1-yl)-2-oxo-6-(trifluoromethyl)-1,2-dihydropyridine-3-carboxamide]	980
CCC[C@H]1C[C@@H](NC(=O)c2cc(-c3ccccc3)c(C(F)(F)F)[nH]c2=O)c2cc(C)ccc2N1 [Compound 265, N-((2S,4R)-6-methyl-2-propyl-1,2,3,4-tetrahydroquinolin-4-yl)-2-oxo-5-phenyl-6-(trifluoromethyl)-1,2-dihydropyridine-3-carboxamide]	80
Cc1ccc2c(c1N)CCC2NC(=O)c1ccc(C(F)(F)F)[nH]c1=O (centres unmarked) [Compound 266, N-(4-amino-5-methyl-2,3-dihydro-1H-inden-1-yl)-2-oxo-6-(trifluoromethyl)-1,2-dihydropyridine-3-carboxamide]	640
C=CCc1cc(NC(=O)c2ccc(C(F)(F)F)[nH]c2=O)cc(CC=C)n1 [Compound 267, N-(2,6-diallylpyridin-4-yl)-2-oxo-6-(trifluoromethyl)-1,2-dihydropyridine-3-carboxamide]	9440
CCCc1cc(NC(=O)c2ccc(C(F)(F)F)[nH]c2=O)cc(CCC)n1 [Compound 268, N-(2,6-dipropylpyridin-4-yl)-2-oxo-6-(trifluoromethyl)-1,2-dihydropyridine-3-carboxamide]	> 10000
C=CCc1cc(NC(=O)c2ccc(C(F)(F)F)[nH]c2=O)cc(/C=C/C)n1 [Compound 269, (E)-N-(2-allyl-6-(prop-1-en-1-yl)pyridin-4-yl)-2-oxo-6-(trifluoromethyl)-1,2-dihydropyridine-3-carboxamide]	5010
C=CCc1cc(CC=C)cc(NC(=O)c2ccc(C(F)(F)F)[nH]c2=O)c1 [Compound 270, N-(3,5-diallylphenyl)-2-oxo-6-(trifluoromethyl)-1,2-dihydropyridine-3-carboxamide]	1390
COc1ccc(-c2nc(SCc3cccc(C(F)(F)F)c3)[nH]c(=O)c2C#N)cc1 [Compound 283, 4-(4-methoxyphenyl)-6-oxo-2-((3-(trifluoromethyl)benzyl)thio)-1,6-dihydropyrimidine-5-carbonitrile]	4760
CCCC1Cc2cc(C)ccc2C1NC(=O)c1ccc(C(F)(F)F)[nH]c1=O (centres unmarked) [Compound 287, N-(5-methyl-2-propyl-2,3-dihydro-1H-inden-1-yl)-2-oxo-6-(trifluoromethyl)-1,2-dihydropyridine-3-carboxamide]	60
Cc1ccc2c(c1)C(NC(=O)c1ccc(C(F)(F)F)[nH]c1=O)C(C)C2 (centres unmarked) [Compound 288, N-(2,6-dimethyl-2,3-dihydro-1H-inden-1-yl)-2-oxo-6-(trifluoromethyl)-1,2-dihydropyridine-3-carboxamide]	190
CCC1Cc2ccc(C)cc2C1NC(=O)c1ccc(C(F)(F)F)[nH]c1=O (centres unmarked) [Compound 290, N-(2-ethyl-6-methyl-2,3-dihydro-1H-inden-1-yl)-2-oxo-6-(trifluoromethyl)-1,2-dihydropyridine-3-carboxamide]	80
COc1ccc2c(c1)CCC(C)C2NC(=O)c1ccc(C(F)(F)F)[nH]c1=O (stereo not drawn) [Compound 292, N-(6-methoxy-2-methyl-1,2,3,4-tetrahydronaphthalen-l-yl)-2-oxo-6-(trifluoromethyl)-1,2-dihydropyridine-3-carboxamide]	220
